Literature values as cited in US9622981B2, “Liquid-filled hard gel capsule pharmaceutical formulations” (Mylan Inc., priority 2011, dated 2017).

Key:
[1] = not given; remark: listed apart in the source
[2] = ordinary conditions

- solubility in water: insoluble
- partition coefficient, Log P [1]: 5.609±0.618
- stability [2]: stable under ordinary conditions
Compound: C[C@]12C=CC(=O)N[C@@H]1CC[C@@H]1[C@@H]2CC[C@]2(C)[C@@H](C(=O)Nc3cc(C(F)(F)F)ccc3C(F)(F)F)CC[C@@H]12 [Dutasteride, (5α,17β)-N-[2,5 bis(trifluoromethyl)phenyl]-3-oxo-4-azaandrost-1-ene-17-carboxamide]
